Source: ChEMBL document CHEMBL4680085 (J Med Chem, 2016)
Active and inactive are the calls of the source. The rule behind the calls is not given here.

Tests used:
[1] = target: T1, Nuclear factor erythroid 2-related factor 2 (Homo sapiens) (UniProt Q16236); assay: Activation of NRF2 in human MCF-7/AREc32 cells at 10 to 30 uM incubated for 24 hrs by luciferase reporter gene assay; format: cell-based; conditions: MCF7, filed as activator, dose 10-30 µM
T1 sequence (whole entry): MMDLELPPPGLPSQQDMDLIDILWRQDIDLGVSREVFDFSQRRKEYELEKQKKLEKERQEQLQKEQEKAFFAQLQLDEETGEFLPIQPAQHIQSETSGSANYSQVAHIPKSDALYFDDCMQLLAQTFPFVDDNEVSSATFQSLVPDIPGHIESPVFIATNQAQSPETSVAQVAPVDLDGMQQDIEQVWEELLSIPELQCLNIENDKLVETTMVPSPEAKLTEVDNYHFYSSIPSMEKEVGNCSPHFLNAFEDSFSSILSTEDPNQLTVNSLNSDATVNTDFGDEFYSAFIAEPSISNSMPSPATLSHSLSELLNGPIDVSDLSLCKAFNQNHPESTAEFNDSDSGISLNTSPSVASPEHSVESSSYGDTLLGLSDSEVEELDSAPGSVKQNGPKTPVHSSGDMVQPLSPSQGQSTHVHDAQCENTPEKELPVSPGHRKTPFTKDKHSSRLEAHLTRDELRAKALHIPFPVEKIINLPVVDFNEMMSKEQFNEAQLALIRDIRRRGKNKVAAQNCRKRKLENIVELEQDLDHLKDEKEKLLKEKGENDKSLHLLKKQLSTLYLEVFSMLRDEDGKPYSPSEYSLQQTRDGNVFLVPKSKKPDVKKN

[2] = target: T1, Nuclear factor erythroid 2-related factor 2 (Homo sapiens); assay: Activation of NRF2 in human MCF-7/AREc32 cells assessed as concentration required to double Nrf2 transcriptional pathway by measuring specific luciferase reporter activity incubated for 24 hrs by luciferase reporter gene assay; format: cell-based
[3] = target: T1, Nuclear factor erythroid 2-related factor 2 (Homo sapiens); assay: Activation of NRF2 in human MCF-7/AREc32 cells at 3 uM incubated for 24 hrs by luciferase reporter gene assay; format: cell-based; conditions: MCF7, filed as activator
SH-SY5Y [4] = assay: Neuroprotection in human SH-SY5Y cells assessed as reduction in beta-amyloid peptide (1-40)-induced cell death at 3 uM incubated for 24 hrs by MTT assay; format: functional; set-up: scale not given: the % may be the effect or the level left
SH-SY5Y [5] = assay: Neuroprotection in human SH-SY5Y cells assessed as reduction in H2O2-induced cell death at 3 uM incubated for 24 hrs by MTT assay; format: functional; set-up: scale not given: the % may be the effect or the level left
SH-SY5Y [6] = assay: Neuroprotection in human SH-SY5Y cells assessed as reduction in Rotenone/Oligomycin A -induced cell death at 1 uM incubated for 24 hrs by MTT assay; format: functional; set-up: scale not given: the % may be the effect or the level left
SH-SY5Y [7] = assay: Neuroprotection in human SH-SY5Y cells assessed as reduction in Rotenone/Oligomycin A -induced cell death at 3 uM incubated for 24 hrs by MTT assay; format: functional; set-up: scale not given: the % may be the effect or the level left
SH-SY5Y [8] = assay: Neuroprotection in human SH-SY5Y cells assessed as reduction in beta-amyloid peptide (1-42)-induced cell death at >0.01 uM incubated for 24 hrs by MTT assay; format: functional, cell-based; conditions: dose microM >0.01, time […]
in vitro [9] = conditions: human, HepG2 cells
Description: Toxicity in human HepG2 cells assessed as cell viability at 300 uM by MTT assay relative to control

SH-SY5Y [10] = assay: Neuroprotection in human SH-SY5Y cells assessed as reduction in beta-amyloid peptide (1-42)-induced cell death at 1 uM incubated for 24 hrs by MTT assay; format: functional; set-up: scale not given: the % may be the effect or the level left
SH-SY5Y [11] = assay: Neuroprotection in human SH-SY5Y cells assessed as reduction in beta-amyloid peptide (1-40)-induced cell death at 1 uM incubated for 24 hrs by MTT assay; format: functional; set-up: scale not given: the % may be the effect or the level left
SH-SY5Y [12] = assay: Neuroprotection in human SH-SY5Y cells assessed as reduction in beta-amyloid peptide (1-42)-induced cell death at 0.01 uM incubated for 24 hrs by MTT assay; format: functional; set-up: scale not given: the % may be the effect or the level left
in vitro [13] = conditions: human, HepG2 cells; remark: listed apart in the source
Description: Toxicity in human HepG2 cells assessed as cell viability at 1000 uM by MTT assay relative to control

SH-SY5Y [14] = assay: Neuroprotection in human SH-SY5Y cells assessed as reduction in beta-amyloid peptide (1-40)-induced cell death at 0.01 uM incubated for 24 hrs by MTT assay; format: functional; set-up: scale not given: the % may be the effect or the level left
SH-SY5Y [15] = assay: Neuroprotection in human SH-SY5Y cells assessed as reduction in Rotenone/Oligomycin A -induced cell death at >0.01 uM incubated for 24 hrs by MTT assay; format: functional, cell-based; conditions: dose microM >0.01, time […]
SH-SY5Y [16] = assay: Neuroprotection in human SH-SY5Y cells assessed as reduction in H2O2-induced cell death at 1 uM incubated for 24 hrs by MTT assay; format: functional; set-up: scale not given: the % may be the effect or the level left
SH-SY5Y [17] = assay: Neuroprotection in human SH-SY5Y cells assessed as reduction in beta-amyloid peptide (1-42)-induced cell death at 3 uM incubated for 24 hrs by MTT assay; format: functional; set-up: scale not given: the % may be the effect or the level left
in vitro [18] = conditions: human, HepG2 cells; remark: listed apart in the source
Description: Toxicity in human HepG2 cells assessed as cell viability at 100 uM by MTT assay relative to control

SH-SY5Y [19] = assay: Neuroprotection in human SH-SY5Y cells assessed as reduction in beta-amyloid peptide (1-40)-induced cell death at >0.01 uM incubated for 24 hrs by MTT assay; format: functional, cell-based; conditions: dose microM >0.01, time […]
SH-SY5Y [20] = assay: Neuroprotection in human SH-SY5Y cells assessed as reduction in H2O2-induced cell death at 0.01 uM incubated for 24 hrs by MTT assay; format: functional; set-up: scale not given: the % may be the effect or the level left
SH-SY5Y [21] = assay: Neuroprotection in human SH-SY5Y cells assessed as reduction in H2O2-induced cell death at >0.01 uM incubated for 24 hrs by MTT assay; format: functional, cell-based; conditions: dose microM >0.01, time […]
SH-SY5Y [22] = assay: Neuroprotection in human SH-SY5Y cells assessed as reduction in Rotenone/Oligomycin A -induced cell death at 0.01 uM incubated for 24 hrs by MTT assay; format: functional; set-up: scale not given: the % may be the effect or the level left
Cholinesterase [23] = target: Cholinesterase (Equus caballus, UniProt P81908)
Cholinesterase (Equus caballus, UniProt P81908), sequence (P81908 whole entry): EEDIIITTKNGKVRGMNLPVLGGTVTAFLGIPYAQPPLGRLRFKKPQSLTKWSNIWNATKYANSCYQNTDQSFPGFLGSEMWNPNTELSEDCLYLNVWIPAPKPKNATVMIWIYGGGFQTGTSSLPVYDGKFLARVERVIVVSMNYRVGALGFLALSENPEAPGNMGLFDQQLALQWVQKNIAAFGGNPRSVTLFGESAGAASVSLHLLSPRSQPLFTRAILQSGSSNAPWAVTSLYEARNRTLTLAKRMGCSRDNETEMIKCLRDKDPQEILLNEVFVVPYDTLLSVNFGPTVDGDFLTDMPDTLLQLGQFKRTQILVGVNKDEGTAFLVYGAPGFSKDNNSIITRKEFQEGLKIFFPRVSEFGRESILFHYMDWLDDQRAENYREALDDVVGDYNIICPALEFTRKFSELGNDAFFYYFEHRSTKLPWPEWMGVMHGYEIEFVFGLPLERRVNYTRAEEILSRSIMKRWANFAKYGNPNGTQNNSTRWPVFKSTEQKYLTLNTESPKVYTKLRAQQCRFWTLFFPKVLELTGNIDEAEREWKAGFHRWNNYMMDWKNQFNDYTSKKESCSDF
Description: Inhibition of horse serum BuChE pre-incubated for 10 mins before addition of butyrylthiocholine iodide substrate and further incubated for 15 mins by Ellman's method

Acetylcholinesterase [24] = target: Acetylcholinesterase (Electrophorus electricus, UniProt O42275); assay: Inhibition of Electrophorus electricus AChE pre-incubated for 10 mins before addition of acetylthiocholine iodide substrate and further incubated for 15 mins by Ellman's method
Acetylcholinesterase (Electrophorus electricus, UniProt O42275), sequence (O42275 whole entry): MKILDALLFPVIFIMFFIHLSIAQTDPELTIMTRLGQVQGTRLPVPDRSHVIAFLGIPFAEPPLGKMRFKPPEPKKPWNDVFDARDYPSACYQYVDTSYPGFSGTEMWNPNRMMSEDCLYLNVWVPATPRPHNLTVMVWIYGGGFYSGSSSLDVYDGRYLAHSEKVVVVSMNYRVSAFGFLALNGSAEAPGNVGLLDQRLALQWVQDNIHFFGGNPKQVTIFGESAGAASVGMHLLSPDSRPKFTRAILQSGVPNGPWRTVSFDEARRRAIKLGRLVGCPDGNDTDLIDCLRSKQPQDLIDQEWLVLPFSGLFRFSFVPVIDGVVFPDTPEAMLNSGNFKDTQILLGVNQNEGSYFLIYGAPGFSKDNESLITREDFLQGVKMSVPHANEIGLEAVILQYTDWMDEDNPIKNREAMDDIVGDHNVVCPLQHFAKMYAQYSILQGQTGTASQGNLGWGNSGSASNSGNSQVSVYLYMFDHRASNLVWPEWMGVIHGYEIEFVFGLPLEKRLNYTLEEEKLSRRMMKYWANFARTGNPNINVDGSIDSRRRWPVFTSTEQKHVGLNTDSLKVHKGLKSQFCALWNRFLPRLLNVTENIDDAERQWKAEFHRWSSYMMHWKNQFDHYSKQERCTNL

Cholinesterase [25] = target: T2, Cholinesterase (Homo sapiens, UniProt P06276); assay: Inhibition of BuChE in human erythrocyte hemo-lyzates pre-incubated for 5 mins before addition of butyrylthiocholine iodide substrate by Ellman's method; format: tissue-based
T2 sequence (P06276 whole entry): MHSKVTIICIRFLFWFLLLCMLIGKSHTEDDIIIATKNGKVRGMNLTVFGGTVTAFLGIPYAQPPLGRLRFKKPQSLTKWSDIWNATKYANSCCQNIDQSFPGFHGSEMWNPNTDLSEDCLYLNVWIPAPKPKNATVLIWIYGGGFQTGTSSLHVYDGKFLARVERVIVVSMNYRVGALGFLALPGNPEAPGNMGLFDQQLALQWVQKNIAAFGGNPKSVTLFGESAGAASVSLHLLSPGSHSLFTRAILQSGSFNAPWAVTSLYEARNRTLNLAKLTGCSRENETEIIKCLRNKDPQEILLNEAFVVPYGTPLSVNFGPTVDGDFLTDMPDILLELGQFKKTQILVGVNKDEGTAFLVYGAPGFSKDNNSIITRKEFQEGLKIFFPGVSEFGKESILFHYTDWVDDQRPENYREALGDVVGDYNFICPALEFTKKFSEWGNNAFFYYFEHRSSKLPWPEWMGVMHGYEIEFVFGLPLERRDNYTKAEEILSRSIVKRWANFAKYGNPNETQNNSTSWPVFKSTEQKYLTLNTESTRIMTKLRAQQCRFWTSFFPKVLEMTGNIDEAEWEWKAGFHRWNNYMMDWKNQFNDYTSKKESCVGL

Acetylcholinesterase [26] = target: T3, Acetylcholinesterase (Homo sapiens, UniProt P22303); assay: Inhibition of AChE in human erythrocyte hemo-lyzates pre-incubated for 5 mins before addition of acetylthiocholine iodide substrate by Ellman's method; format: tissue-based
T3 sequence (P22303 whole entry): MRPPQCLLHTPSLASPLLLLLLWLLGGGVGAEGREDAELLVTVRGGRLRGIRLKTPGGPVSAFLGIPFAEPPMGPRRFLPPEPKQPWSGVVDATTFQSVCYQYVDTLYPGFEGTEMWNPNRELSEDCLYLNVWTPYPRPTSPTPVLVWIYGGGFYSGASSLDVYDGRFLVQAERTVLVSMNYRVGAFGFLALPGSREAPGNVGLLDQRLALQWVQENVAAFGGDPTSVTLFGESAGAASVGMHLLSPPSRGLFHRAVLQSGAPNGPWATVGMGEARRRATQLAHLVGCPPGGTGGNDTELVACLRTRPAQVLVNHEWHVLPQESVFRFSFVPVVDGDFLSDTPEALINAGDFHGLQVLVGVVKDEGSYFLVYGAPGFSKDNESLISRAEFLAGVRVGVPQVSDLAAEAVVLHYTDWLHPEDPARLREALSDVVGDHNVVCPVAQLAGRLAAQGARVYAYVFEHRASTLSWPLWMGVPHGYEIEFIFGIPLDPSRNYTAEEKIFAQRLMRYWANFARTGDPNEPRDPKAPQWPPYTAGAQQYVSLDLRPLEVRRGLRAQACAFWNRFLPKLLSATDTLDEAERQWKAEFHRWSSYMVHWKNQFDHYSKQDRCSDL

[27] = Effective permeability at 100 uM after 3 to 6 hrs by PAMPA assay; format: ADME; conditions: time 3-6 hrs, read-out: Peff
[28] = Antioxidant activity assessed as decrease in peak intensity of hydroxyl radicals at 100 uM by N-oxide self-spin assay relative to control; format: functional; set-up: scale not given: the % may be the effect or the level left
Acetylcholinesterase [29] = target: T3, Acetylcholinesterase; assay: Potency index, ratio of IC50 for tacrine to IC50 for test compound for inhibition of AChE in human erythrocyte hemo-lyzates pre-incubated for 5 mins before addition of acetylthiocholine iodide substrate by Ellman's method; format: tissue-based
Cholinesterase [30] = target: T2, Cholinesterase; assay: Competitive type inhibition of BuChE in human erythrocyte hemo-lyzates using […] substrate by Ellman's method based Lineweaver-Burk plot analysis; format: tissue-based
Acetylcholinesterase [31] = target: T3, Acetylcholinesterase; assay: Mixed type inhibition of AChE in human erythrocyte hemo-lyzates using acetylthiocholine iodide substrate by Ellman's method based Lineweaver-Burk plot analysis; format: tissue-based
Cholinesterase [32] = target: T2, Cholinesterase; assay: Potency index, ratio of IC50 for tacrine to IC50 for test compound for inhibition of BuChE in human erythrocyte hemo-lyzates pre-incubated for 5 mins before addition of butyrylthiocholine iodide substrate by Ellman's method; format: tissue-based

## CC(C)(C)c1cc(O)ccc1O
[1]
  Activity: Active
[2]; MCF7, filed as activator
  CD: 1.68 µM
[3]
  Activity: Active

## COc1ccc2[nH]cc(CCNC(C)=O)c2c1 [MELATONIN]
SH-SY5Y [4]
  Activity: 60.2%
SH-SY5Y [5]
  Activity: 60.7%
SH-SY5Y [6]
  Activity: 50.1%
SH-SY5Y [7]
  Activity: 59.1%
SH-SY5Y [8]
  Activity: inactive
In vitro [9]
  viability at 300 µM: 71.8%
SH-SY5Y [10]
  Activity: 39.4%
SH-SY5Y [11]
  Activity: 35.5%
[1]
  Activity: Active
SH-SY5Y [12]
  Activity: 81.4%
In vitro [13]
  viability at 1000 µM: 72.3%
SH-SY5Y [14]
  Activity: 33%
[2]; MCF7
  CD: > 60 µM
SH-SY5Y [15]
  Activity: inactive
SH-SY5Y [16]
  Activity: 47.4%
SH-SY5Y [17]
  Activity: 15.3%
[3]
  Activity: Active
In vitro [18]
  viability at 100 µM: 91.4%
SH-SY5Y [19]
  Activity: inactive
SH-SY5Y [20]
  Activity: 55.4%
SH-SY5Y [21]
  Activity: inactive
SH-SY5Y [22]
  Activity: 66.6%

## COc1ccc2nc3c(c(NCCCCCCN(CC(=O)NCCc4c[nH]c5ccc(OC)cc45)C(=O)CCCC[C@@H]4CCSS4)c2c1)CCCC3
Cholinesterase [23]
  IC50: 3.92 nM
Acetylcholinesterase [24]
  IC50: 16 nM
In vitro [9]
  viability at 300 µM: 46.4%
Cholinesterase [25]
  IC50: 1880 nM
In vitro [13]
  viability at 1000 µM: 44.8%
Acetylcholinesterase [26]
  IC50: > 10000 nM
In vitro [18]
  viability at 100 µM: 68.7%

## COc1ccc2nc3c(c(NCCCCCCN(CC(=O)NCCc4c[nH]c5ccc(OC)cc45)C(=O)/C=C/c4ccc(O)c(OC)c4)c2c1)CCCC3
SH-SY5Y [4]
  Activity: inactive
SH-SY5Y [5]
  Activity: 42.8%
Cholinesterase [23]
  IC50: 2.97 nM
SH-SY5Y [6]
  Activity: 39.2%
Acetylcholinesterase [24]
  IC50: 17.8 nM
SH-SY5Y [7]
  Activity: 29.2%
[27]
  Papp at 100 µM: 2.2 ×10⁻⁶ cm/s
In vitro [9]
  viability at 300 µM: 67.6%
SH-SY5Y [10]
  Activity: 85.1%
SH-SY5Y [11]
  Activity: 12%
Cholinesterase [25]
  IC50: 358 nM
In vitro [13]
  viability at 1000 µM: 56.5%
[2]; MCF7, filed as activator
  CD: 10.9 µM
SH-SY5Y [16]
  Activity: 22.9%
SH-SY5Y [17]
  Activity: 50.2%
Acetylcholinesterase [26]
  IC50: > 10000 nM
In vitro [18]
  viability at 100 µM: 70.3%

## CC(=O)SCCC(=O)NCCCCCCNc1c2c(nc3cc(Cl)ccc13)CCCC2
[28]
  Activity: 80.3%

## COc1ccc2[nH]cc(CCNC(=O)CN(CCCCCCCCNc3c4c(nc5ccccc35)CCCC4)C(=O)/C=C/c3ccc(O)c(OC)c3)c2c1
SH-SY5Y [4]
  Activity: 66.3%
SH-SY5Y [5]
  Activity: 51.3%
Cholinesterase [23]
  IC50: 2.26 nM
SH-SY5Y [6]
  Activity: 44.8%
Acetylcholinesterase [24]
  IC50: 13.9 nM
Acetylcholinesterase [29]
  Ratio IC50: 6.91
SH-SY5Y [7]
  Activity: 59.4%
Cholinesterase [30]
  inhibition: Active
[27]
  Papp at 100 µM: 5.8 ×10⁻⁶ cm/s
Acetylcholinesterase [31]
  inhibition: Active
In vitro [9]
  viability at 300 µM: 51.3%
SH-SY5Y [10]
  Activity: 34.5%
SH-SY5Y [11]
  Activity: 21.5%
Cholinesterase [25]
  IC50: 23.5 nM
In vitro [13]
  viability at 1000 µM: 49.7%
[2]; MCF7, filed as activator
  CD: 15.7 µM
SH-SY5Y [16]
  Activity: 35.4%
SH-SY5Y [17]
  Activity: 5.3%
Acetylcholinesterase [26]
  IC50: 43.7 nM
In vitro [18]
  viability at 100 µM: 53.3%
Cholinesterase [32]
  Ratio IC50: 6.91
